Assay results taken from ChEMBL document CHEMBL5550084, “Ferroptosis and its modulators: A raising target for cancer and Alzheimer's disease” (Bioorg Med Chem, 2024).

What was measured:
[1] = Growth inhibition of human BJeLR cell by Trypan blue staining based analysis; type: toxicity; details: BJeLR cells
[2] = target: T1, Cystine/glutamate transporter (Homo sapiens, UniProt Q9UPY5); experiment: Inhibition of Xc- in human HT-1080 cells assessed as decrease in glutamate release incubated for 2 hrs by Amplex red assay; type: cell-based
T1 sequence (Q9UPY5 whole entry): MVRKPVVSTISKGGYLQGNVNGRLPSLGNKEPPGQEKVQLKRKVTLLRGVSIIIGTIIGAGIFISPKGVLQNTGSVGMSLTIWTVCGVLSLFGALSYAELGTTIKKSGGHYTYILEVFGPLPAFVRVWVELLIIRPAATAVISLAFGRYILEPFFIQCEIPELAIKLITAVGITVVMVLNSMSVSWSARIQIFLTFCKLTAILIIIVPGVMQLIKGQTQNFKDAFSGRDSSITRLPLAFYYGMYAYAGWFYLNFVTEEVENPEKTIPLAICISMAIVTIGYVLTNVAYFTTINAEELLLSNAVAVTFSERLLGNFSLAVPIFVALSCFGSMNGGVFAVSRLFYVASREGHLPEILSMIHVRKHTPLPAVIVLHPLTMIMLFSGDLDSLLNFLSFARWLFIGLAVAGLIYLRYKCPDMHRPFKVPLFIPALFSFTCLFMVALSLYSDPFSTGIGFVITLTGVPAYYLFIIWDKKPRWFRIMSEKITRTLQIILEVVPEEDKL

IC50 [2] | SMILES | GI50 [1]
 | CC(C)Oc1ccncc1-n1c(CN2CCN(C(=O)COc3ccc(Cl)cc3)CC2)nc2ccccc2c1=O | > 0.01 µM
 | CC(C)Oc1ccc(CN2CCOCC2)cc1-n1c(CN2CCN(C(=O)COc3ccc(Cl)cc3)CC2)nc2ccccc2c1=O | 0.00013 µM
0.3 µM | CC(C)Oc1ccc(C(=O)CN2CCN(C)CC2)cc1-n1c(CN2CCN(C(=O)COc3ccc(Cl)cc3)CC2)nc2ccccc2c1=O | 0.474 µM
0.01 µM | CC(C)Oc1ccc(C(=O)CN2CCOCC2)cc1-n1c(CN2CCN(C(=O)COc3ccc(Cl)cc3)CC2)nc2ccccc2c1=O | 0.427 µM
 | CC(C)Oc1ccc(C=O)cc1-n1c(CN2CCN(C(=O)COc3ccc(Cl)cc3)CC2)nc2ccccc2c1=O | 0.008 µM
 | CCOc1ccccc1-n1c(C(C)N2CCN(C(=O)COc3ccc(Cl)cc3)CC2)nc2ccccc2c1=O (centres undefined) [ERASTIN] | 0.0017 µM
 | CC(C)Oc1ccc(CN2CCNCC2)cc1-n1c(CN2CCN(C(=O)COc3ccc(Cl)cc3)CC2)nc2ccccc2c1=O | 0.0009 µM
